Measured values from ChEMBL document CHEMBL1201862, “PubChem BioAssay data set” (2004).
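Test compounds were applied to cells in 96-well plates for 48 hours at 5 doses. The concentration for 50% growth inhibition is given as GI50.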 Activity calls are given as the source filed them. Rule as the data show it: active = GI50 up to about 1.1 µM and inactive = higher.

Experiments:
Assay in all cases: NCI anticancer screen, dose series, 48 h
[1] = system: Malme-3M
[2] = system: MOLT-4
[3] = system: HCT-116
[4] = system: SK-OV-3
[5] = system: U-251
[6] = system: M14
[7] = system: ACHN
[8] = system: HT-29
[9] = system: SNB-75
[10] = system: UACC-62
[11] = system: NCI-H460
[12] = system: KM12
[13] = system: 786-0
[14] = system: OVCAR-8
[15] = system: HOP-62
[16] = system: NCI-H23

Measured: GI50

CC(C)(C)c1cc(C(=O)O)c(C(c2ccccc2)c2ccccc2C(=O)O)c(C(=O)O)c1 (configuration not stated)
inactive: [1] > 100 µM | [2] > 100 µM | [3] > 100 µM | [4] 21.7 µM | [5] 11.3 µM | [6] > 100 µM | [7] 20.7 µM | [8] > 100 µM | [9] 21.7 µM | [10] > 100 µM | [11] > 100 µM | [12] > 100 µM | [13] > 100 µM | [14] > 100 µM | [15] > 100 µM | [16] > 100 µM

C[N+](C)(C)CC(=O)N/N=C(/Cc1cc(=O)oc2cc(O)ccc12)C(=O)Nc1ccc(Cl)cc1
inactive: [1] > 100 µM | [2] > 100 µM | [3] > 100 µM | [4] > 100 µM | [6] > 100 µM | [7] > 100 µM | [8] > 100 µM | [10] > 100 µM | [11] > 100 µM | [12] > 100 µM | [13] > 100 µM | [14] > 100 µM | [15] > 100 µM | [16] > 100 µM

COc1cccc(C=O)c1C(=O)c1cc(O)ccc1O
inactive: [1] 20.4 µM | [2] 3.13 µM | [3] 20.1 µM | [4] > 100 µM | [5] > 100 µM | [6] 17.9 µM | [7] 17.6 µM | [8] > 49.2 µM | [9] > 95.3 µM | [10] 54.8 µM | [11] > 100 µM | [12] > 100 µM | [13] > 100 µM | [14] 20.3 µM | [15] > 100 µM | [16] > 81.7 µM

CN/N=C(\C)c1c(O)cc(C)oc1=O
inactive: [1] > 100 µM | [2] > 100 µM | [3] > 100 µM | [4] > 100 µM | [5] > 100 µM | [6] > 100 µM | [7] > 100 µM | [8] > 100 µM | [9] > 100 µM | [10] > 100 µM | [11] > 100 µM | [12] > 100 µM | [13] > 100 µM | [14] > 100 µM | [15] > 100 µM | [16] > 100 µM

CC12CC[C@H](O)C(C)(C)[C@H]1CC[C@](C)(O)C2COc1ccc2ccc(=O)oc2c1 (some centres not stated)
inactive: [1] 73.6 µM | [2] 80.9 µM | [3] 50.9 µM | [4] > 100 µM | [5] > 100 µM | [6] > 100 µM | [7] > 100 µM | [8] > 100 µM | [9] 62.2 µM | [10] 64.4 µM | [11] > 100 µM | [12] > 100 µM | [13] > 100 µM | [14] > 100 µM | [15] > 100 µM | [16] > 100 µM

CCOC(=O)c1cc(/C=C/C(C)=C/C(=O)OC)n(C)c1C
inactive: [1] > 100 µM | [2] 41.7 µM | [4] > 100 µM | [5] > 100 µM | [6] > 100 µM | [7] 45.2 µM | [8] 40 µM | [10] 50.6 µM | [11] > 100 µM | [12] 59.2 µM | [13] > 100 µM | [14] > 100 µM | [15] > 100 µM | [16] > 100 µM

CC1(C)O[C@@H](CC/C=C/CO)[C@H](CC/C=C/CO)O1
inactive: [1] > 100 µM | [2] > 100 µM | [3] > 100 µM | [4] > 100 µM | [5] > 100 µM | [6] > 100 µM | [7] > 100 µM | [8] > 100 µM | [9] > 100 µM | [11] > 100 µM | [12] > 100 µM | [13] > 100 µM | [14] > 100 µM | [15] > 100 µM | [16] > 100 µM

CC(=O)C=C1Nc2ccccc2N1
inactive: [1] > 100 µM | [2] > 100 µM | [3] > 100 µM | [5] > 100 µM | [6] > 100 µM | [7] > 100 µM | [8] > 100 µM | [9] 36.9 µM | [10] > 100 µM | [11] > 100 µM | [12] > 100 µM | [13] > 100 µM | [14] > 100 µM | [16] > 100 µM

CC[N+](CC)(CC)Cc1cc2ccccc2n1C(=O)OC
inactive: [1] > 100 µM | [2] > 100 µM | [3] > 100 µM | [5] > 100 µM | [6] > 100 µM | [7] > 100 µM | [8] > 100 µM | [9] 87.9 µM | [10] > 100 µM | [11] > 100 µM | [12] > 100 µM | [13] > 100 µM | [14] > 100 µM | [15] > 100 µM | [16] > 100 µM

CC(C)NCCNC(=O)c1ccccc1Nc1c(Cl)cccc1Cl
inactive: [2] 8.69 µM | [3] 11.3 µM | [4] 14.8 µM | [5] 4.65 µM | [6] 11.5 µM | [7] 17.4 µM | [8] 4.71 µM | [9] 4.63 µM | [10] 15.8 µM | [11] 3.29 µM | [12] 16.9 µM | [13] 4.16 µM | [14] 16.6 µM | [15] 11.6 µM | [16] 17.7 µM

CC(C)N(C(=O)C12C3C4C1C1C2C3C41C(O)C(C)(C)C)C(C)C (configuration not stated)
inactive: [1] > 50 µM | [2] > 50 µM | [3] > 50 µM | [4] > 50 µM | [5] > 50 µM | [6] > 50 µM | [7] > 50 µM | [8] > 50 µM | [9] 26.2 µM | [10] > 50 µM | [13] > 50 µM | [14] > 50 µM | [15] > 50 µM

OCC1OC(NO)C(O)C(O)C1O (configuration not stated)
inactive: [1] > 100 µM | [2] > 100 µM | [3] > 100 µM | [5] > 100 µM | [6] > 100 µM | [7] > 100 µM | [8] > 100 µM | [10] > 100 µM | [11] > 100 µM | [12] > 100 µM | [13] > 100 µM | [14] > 100 µM | [15] > 100 µM | [16] > 100 µM

Clc1ccc(C(c2ccc(Cl)cc2)c2ccccn2)cc1
inactive: [1] 19.1 µM | [2] 21.4 µM | [4] 34.6 µM | [5] 17 µM | [6] 21.1 µM | [7] 18.1 µM | [8] 14.9 µM | [9] 44.9 µM | [10] 16.4 µM | [11] 17.1 µM | [12] 19.1 µM | [13] 16.7 µM | [14] 16.7 µM | [16] 31.6 µM
